Laboratory results: patent publication US4239778A, “Azaprostanoic acid analogs and their use as inhibitors of platelet aggregation” (priority 1978, dated 1980)
Entries after “also recorded” stand apart in the source; their conditions may differ.

Experiments:
[1] = target: T1, prostaglandin synthetase (cyclooxygenase) (Bos taurus, UniProt O62664); test: Inhibition of prostaglandin synthetase (cyclooxygenase): arachidonic acid-dependent formation of adrenochrome from L-epinephrine; type: biochemical, bovine (seminal vesicles); details: for inhibition of cyclooxygenase (in words) / inhibition at 500 µM: 5×10^-4 M; for inhibition at 500 µM: read-out: inhibitory activity on cyclooxygenase
T1 construct: adrenochrome assay with arachidonic acid
T1 sequence (O62664 25-600): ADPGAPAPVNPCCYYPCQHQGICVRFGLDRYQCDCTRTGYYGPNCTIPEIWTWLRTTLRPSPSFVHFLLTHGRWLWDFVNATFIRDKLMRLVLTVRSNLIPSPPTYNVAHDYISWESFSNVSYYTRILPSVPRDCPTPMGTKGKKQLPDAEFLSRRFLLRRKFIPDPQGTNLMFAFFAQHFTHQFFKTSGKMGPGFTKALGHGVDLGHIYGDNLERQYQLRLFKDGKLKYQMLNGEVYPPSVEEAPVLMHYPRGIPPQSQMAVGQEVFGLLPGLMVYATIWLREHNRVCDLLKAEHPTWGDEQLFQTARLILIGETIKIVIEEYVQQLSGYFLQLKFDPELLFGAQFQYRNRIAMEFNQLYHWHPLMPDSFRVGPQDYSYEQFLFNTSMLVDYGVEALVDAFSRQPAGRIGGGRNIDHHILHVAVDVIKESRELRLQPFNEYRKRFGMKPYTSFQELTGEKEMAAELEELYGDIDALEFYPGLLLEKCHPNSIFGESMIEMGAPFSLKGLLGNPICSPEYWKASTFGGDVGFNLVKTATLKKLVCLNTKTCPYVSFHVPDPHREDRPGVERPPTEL
Procedure: A representative sample of the 13-azaprostanoic acid derivatives, and cis-15-azaprostanoic acid were tested for their effect as inhibitors of prostaglandin synthetase (cyclooxygenase). The basis of the assay is the measurement of the arachidonic acid-dependent formation of adrenochrome from L-peinephrine during prostaglandin biosynthesis [See, generally, the procedure of Takaguchi, et al., Prostaglandins, 2, 169 (1972)].
In order to check the possibility that the compounds might be inhibitors of the cyclooxygenase enzyme, they were tested in a standard prostaglandin biosynthesis assay according to the method of Takagushi, et al., Prostaglandins, 2, 169 (1972). The basis of the assay is the measurement of the arachidonic acid-dependent formation of adrenochrome from L-epinephrine during prostaglandin biosynthesis. Although the assay is an indirect measurement of cyclooxygenase activity, it offers the advantage that total enzyme activity is measured and is not limited to the measurement of any one product of the biotransformation.

platelets (human PRP) = test: Arachidonic acid-induced platelet aggregation (method of Born); type: cell-based; details: for inhibition at 10 µM: Homo sapiens, Platelet, human PRP; for inhibition of arachidonic acid-induced platelet aggregation (in words): 10 μM inhibitor
Procedure: The effect of various azaprostanoic acids of the invention on arachidonic acid-induced platelet aggregation was determined according to the method of Born, Nature, 194, 927 (1962). At a concentration of 10 μM, trans-13-azaprostanoic acid, and cis-15-azaprostanoic acid, inhibit aggregation 100% and 91%, respectively in response to 300 μM arachidonare. Both the cis and trans-13-aza-20-homoprostanoic acid analogs show significant inhibitory activity, 50% and 71%, respectively.
The relative inhibitory activities of the azaprostanoic acids were determined by varying the concentration of arachidonic acid while keeping the inhibitor concentration constant.

[2] = test system: platelets (human platelet rich plasma); test: ADP-induced primary (reversible) platelet aggregation; type: cell-based; details: 100 μM, 2 min. pretreatment; 10 μM ADP
Text: No effect was observed on the ADP-induced primary aggregation of platelets.

[3] = test system: aspirin-treated platelets (human PRP); test: Aggregation of aspirin-treated platelets by transferred externally generated endoperoxides/thromboxane A2; type: cell-based
Procedure: The effect of trans-13-azaprostanoic acid on platelet aggregation induced by externally generated endoperoxides and thromboxane A2 was investigated. The endoperoxides and thromboxane A2 were generated by the addition of 500 μM arachidonic acid to 0.75 ml of human platelet-rich plasma (PRP). […] The endoperoxides and thromboxane transferred caused the aspirin-treated platelets to aggregate.
It has been shown that the formation of thromboxanes is closely associated with the initiation of platelet aggregation and occurs rapidly (within 30 sec.) when induced by arachidonic acid. Therefore, the aggregating effect of thromboxane A2 can be studied by first generating the agent in one sample of PRP, and then transferring a portion of this to a second sample of PRP. […] Thus, any aggregation induced by transferred material is due to thromboxane A2 and/or prostaglandin endoperoxides. […] This experiment was repeated several times with identical results.

cyclooxygenase = details: cited from earlier work
platelet rich plasma = test: Platelet aggregation with 500 μM arachidonic acid (Table IV); type: cell-based
Procedure: (§1) Platelet rich plasma was aggregated with 500 μM arachidonic acid and three minutes following arachidonate addition, aliquots of the plasma were drawn for TXB2 determinations.

[4] = test system: platelet conversion of AA to thromboxane B2 (TXB2); test: TXB2 formation in platelet rich plasma aggregated with arachidonic acid (radioimmunoassay); type: cell-based; details: AA 500 μM alone
Procedure: as §1

[5] = in vivo; cited from earlier work
thromboxane synthetase = details: cited from earlier work
ADP-induced aggregation = details: vs PGE1; cited from earlier work
[6] = 10^-5 M (10 μM) inhibitor, 300 μM arachidonate
[7] = 10^-5 M inhibitor, 400 μM arachidonate
[8] = 10^-5 M inhibitor, 500 μM arachidonate

CCCCCCCN[C@@H]1CCC[C@H]1CCCCCCC(=O)O (relative stereo) [Example 4 trans, trans-13-azaprostanoic acid]
inhibition of cyclooxygenase (in words) [1]: did not significantly inhibit
inhibition at 10 µM (platelets (human PRP); [6]): 100%
inhibition at 10 µM (platelets (human PRP); [7]): 66%
inhibition at 10 µM (platelets (human PRP); [8]): 19%
inhibition of platelet aggregation (in words) (platelets (human PRP); summary of screening): potent inhibitors of platelet aggregation
effect on ADP-induced primary aggregation [2]: did not alter reversible, primary phase aggregation
aggregation induced by transferred thromboxane A2/endoperoxide mixture ([3]; 100 μM pre-incubation, aspirin-treated platelets): totally inhibited; also recorded: no aggregation was observed

CCCCCCCN[C@@H]1CCC[C@@H]1CCCCCCC(=O)O (relative stereo) [cis-13-aza]
inhibition of arachidonic acid-induced platelet aggregation (in words) (platelets (human PRP)): inactive

COc1ccc2c(c1)c(CC(=O)O)c(C)n2C(=O)c1ccc(Cl)cc1 [indomethacin, reference compound]
inhibition of prostaglandin biosynthesis / cyclooxygenase (in words) (cyclooxygenase): inhibit prostaglandin biosynthesis by blocking the conversion of substrate fatty acids to endoperoxides
inhibition of aggregation (in words) (platelet rich plasma; indomethacin 20 μM): totally blocks aggregation
inhibition of prostaglandin biosynthesis (in words) ([1]; indomethacin 2×10^-5 M): completely inhibited
inhibition at 20 µM ([1]; read-out: inhibition of enzyme activity): 100%

CCCCC/C=C\C/C=C\C/C=C\C/C=C\CCCC(=O)O [Arachidonic Acid (AA), Arachidonic Acid]
% Aggregation (platelet rich plasma; AA 500 μM alone): 80%
TXB2 [4]: 1179 ± 37 ng/mL
aggregation of aspirin-treated platelets by arachidonic acid ([3]; 500 μM arachidonic acid, aspirin 0.5 mg/ml): did not cause aggregation

CCCCCNCC[C@H]1CCC[C@H]1CCCCCCC(=O)O (relative stereo) [Example 8 cis, 15-Azaprostanoic acid]
inhibition at 10 µM (platelets (human PRP); [6]): 91%
inhibition at 10 µM (platelets (human PRP); [7]): 16%
inhibition at 10 µM (platelets (human PRP); [8]): 0%
effect on ADP-induced primary aggregation [2]: did not alter reversible, primary phase aggregation

CCCCCCCCN[C@@H]1CCC[C@H]1CCCCCCC(=O)O (relative stereo) [Example 6 trans, trans-13-aza-20-homoprostanoic acid]
inhibition at 500 µM [1]: ~30%
inhibition at 10 µM (platelets (human PRP); [6]): 71%
inhibition at 10 µM (platelets (human PRP); [7]): 7%
inhibition at 10 µM (platelets (human PRP); [8]): 0%

O=C(O)CCCCCC[C@@H]1CCC[C@H]1NCc1ccccc1 (relative stereo) [Example 3 trans]
inhibition of cyclooxygenase (in words) [1]: did not significantly inhibit
inhibition of arachidonic acid-induced platelet aggregation (in words) (platelets (human PRP)): inactive
inhibition at 10 µM (platelets (human PRP); [6]): 0%
inhibition at 10 µM (platelets (human PRP); [7]): 0%
inhibition at 10 µM (platelets (human PRP); [8]): 0%
effect on ADP-induced primary aggregation [2]: did not alter reversible, primary phase aggregation

CCCCC[C@H](O)/C=C/[C@H]1[C@H](O)CC(=O)[C@@H]1CCCCCCC(=O)O [PGE1]
biological half-life (in words) [5]: very short biological half-lives

CCCCC[C@H](O)/C=C/[C@H]1C(=O)C[C@H](O)[C@@H]1C/C=C\CCCC(=O)O [PGD2]
biological half-life (in words) [5]: very short biological half-lives

CCCCCCCCN[C@H]1CCC[C@H]1CCCCCCC(=O)O (relative stereo) [Example 6 cis, cis-13-Aza-20-homoprostanoic acid]
inhibition at 500 µM [1]: ~30%
inhibition at 10 µM (platelets (human PRP); [6]): 50%
inhibition at 10 µM (platelets (human PRP); [7]): 11%
inhibition at 10 µM (platelets (human PRP); [8]): 0%

CN(C)CCCOc1nn(Cc2ccccc2)c2ccccc12 [Benzydamine]
inhibition of thromboxane synthetase (in words) (thromboxane synthetase): more than twice as effective in inhibiting thromboxane synthetase than in inhibiting prostaglandin biosynthesis (cyclooxygenase)

CCCCCCCN[C@H]1CCC[C@H]1CCCCCCC(=O)O (relative stereo) [Example 4 cis, cis-13-Azaprostanoic acid]
inhibition of cyclooxygenase (in words) [1]: did not significantly inhibit
inhibition at 10 µM (platelets (human PRP); [6]): 43%
inhibition at 10 µM (platelets (human PRP); [7]): 11%
inhibition at 10 µM (platelets (human PRP); [8]): 0%
effect on ADP-induced primary aggregation [2]: did not alter reversible, primary phase aggregation

CCCC[C@H](O)/C=C/[C@H]1[C@H](O)CC(=O)[C@@H]1CCCCCCC(=O)O [Example 20-nor-PGE1, 20-nor-PGE1]
potency relative to PGE1 as inhibitor of ADP-induced aggregation (in words) (ADP-induced aggregation): only half as potent as PGE1

CCCCCC[C@H](O)/C=C/[C@H]1[C@H](O)CC(=O)[C@@H]1CCCCCCC(=O)O [Example 20-homo-PGE1, 20-homo-PGE1]
potency relative to PGE1 as inhibitor of ADP-induced aggregation (ADP-induced aggregation): 3.82 times

CCCCCCN[C@@H]1CCC[C@H]1CCCCCCC(=O)O (relative stereo) [Example 5 trans, trans-13-aza-20-norprostanoic acid]
inhibition of cyclooxygenase (in words) [1]: did not significantly inhibit
inhibition at 10 µM (platelets (human PRP); [6]): 14%
inhibition at 10 µM (platelets (human PRP); [7]): 0%
inhibition at 10 µM (platelets (human PRP); [8]): 0%
